Assay results from the kinase profiling compilation of Christmann-Franck et al. (2016).

Columns and labels:
Conditions in all cases: compound 10.0 µM
TNK2 (human) = TNK2 (human) (UniProt Q07912)
MARK4 (human) = MARK4 (human) (UniProt Q96L34)
EIF2AK1 (human) = EIF2AK1 (human) (UniProt Q9BQI3)
CSNK1G3 (human) = CSNK1G3 (human) (UniProt Q9Y6M4)
NEK11 (human) = NEK11 (human) (UniProt Q8NG66)
STK10 (human) = STK10 (human) (UniProt O94804)
PRKG2 (human) = PRKG2 (human) (UniProt Q13237)
MAPK11 (human) = MAPK11 (human) (UniProt Q15759)
HIPK4 (human) = HIPK4 (human) (UniProt Q8NE63)
PLK4 (human) = PLK4 (human) (UniProt O00444)
PIP4K2C (human) = PIP4K2C (human) (UniProt Q8TBX8)
[1] = tested on: FLT3 (human), P36888 [K663Q]
PIM2 (human) = PIM2 (human) (UniProt Q9P1W9)
ACVR2A (human) = ACVR2A (human) (UniProt P27037)
EPHA1 (human) = EPHA1 (human) (UniProt P21709)
STK16 (human) = STK16 (human) (UniProt O75716)
PRKCI (human) = PRKCI (human) (UniProt P41743)
EPHA7 (human) = EPHA7 (human) (UniProt Q15375)
EPHA8 (human) = EPHA8 (human) (UniProt P29322)
EIF2AK2 (human) = EIF2AK2 (human) (UniProt P19525)
PLK3 (human) = PLK3 (human) (UniProt Q9H4B4)
PRKCE (human) = PRKCE (human) (UniProt Q02156)
CSNK2A1 (human) = CSNK2A1 (human) (UniProt P68400)
MAPK8 (human) = MAPK8 (human) (UniProt P45983)
CDC42BPA (human) = CDC42BPA (human) (UniProt Q5VT25)
[2] = biological target: JAK3 JH1 catalytic (human) (UniProt P52333)
MAPK4 (human) = MAPK4 (human) (UniProt P31152)
CHEK2 (human) = CHEK2 (human) (UniProt O96017)
BMX (human) = BMX (human) (UniProt P51813)
DYRK1B (human) = DYRK1B (human) (UniProt Q9Y463)
FGFR1 (human) = FGFR1 (human) (UniProt P11362)
FGFR4 (human) = FGFR4 (human) (UniProt P22455)
CDKL5 (human) = CDKL5 (human) (UniProt O76039)
MAPKAPK2 (human) = MAPKAPK2 (human) (UniProt P49137)
SLK (human) = SLK (human) (UniProt Q9H2G2)
PTK6 (human) = PTK6 (human) (UniProt Q13882)
RIOK2 (human) = RIOK2 (human) (UniProt Q9BVS4)
PIM1 (human) = PIM1 (human) (UniProt P11309)
[3] = tested on: FLT3 (human), P36888 [ITD]
BMPR2 (human) = BMPR2 (human) (UniProt Q13873)
HCK (human) = HCK (human) (UniProt P08631)

Sequence of MAPK11 (human) (Q15759 whole entry, looked up): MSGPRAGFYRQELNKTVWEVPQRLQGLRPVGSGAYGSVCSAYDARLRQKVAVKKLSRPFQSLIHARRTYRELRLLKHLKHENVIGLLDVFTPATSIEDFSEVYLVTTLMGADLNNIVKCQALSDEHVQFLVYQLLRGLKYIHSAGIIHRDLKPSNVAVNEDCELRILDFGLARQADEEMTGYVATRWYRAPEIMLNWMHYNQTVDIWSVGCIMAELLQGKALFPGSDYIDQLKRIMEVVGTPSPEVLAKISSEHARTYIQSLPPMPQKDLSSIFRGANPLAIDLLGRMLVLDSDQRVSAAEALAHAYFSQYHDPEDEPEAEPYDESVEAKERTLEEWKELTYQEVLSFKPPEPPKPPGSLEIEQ
Sequence of MARK4 (human) (Q96L34 whole entry, looked up): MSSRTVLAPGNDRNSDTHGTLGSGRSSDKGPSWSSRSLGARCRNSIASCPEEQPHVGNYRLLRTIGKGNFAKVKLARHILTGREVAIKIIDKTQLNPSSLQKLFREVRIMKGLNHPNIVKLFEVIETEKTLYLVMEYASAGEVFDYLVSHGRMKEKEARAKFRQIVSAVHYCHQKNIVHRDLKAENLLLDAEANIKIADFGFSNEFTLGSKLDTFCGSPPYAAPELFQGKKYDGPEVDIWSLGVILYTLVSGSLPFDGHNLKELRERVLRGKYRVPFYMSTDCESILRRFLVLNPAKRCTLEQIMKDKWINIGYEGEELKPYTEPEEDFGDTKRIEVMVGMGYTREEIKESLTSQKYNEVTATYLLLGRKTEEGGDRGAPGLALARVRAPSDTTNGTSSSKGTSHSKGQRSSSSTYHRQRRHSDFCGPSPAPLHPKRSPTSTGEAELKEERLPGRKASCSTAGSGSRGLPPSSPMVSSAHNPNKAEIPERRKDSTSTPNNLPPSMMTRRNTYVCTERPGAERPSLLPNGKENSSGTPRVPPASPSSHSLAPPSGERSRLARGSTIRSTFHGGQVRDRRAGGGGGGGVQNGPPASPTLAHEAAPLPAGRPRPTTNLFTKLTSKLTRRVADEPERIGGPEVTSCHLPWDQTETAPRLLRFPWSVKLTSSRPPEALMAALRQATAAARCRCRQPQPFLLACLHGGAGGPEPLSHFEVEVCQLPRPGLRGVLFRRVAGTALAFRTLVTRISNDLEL
Sequence of PIM1 (human) (P11309 whole entry, looked up): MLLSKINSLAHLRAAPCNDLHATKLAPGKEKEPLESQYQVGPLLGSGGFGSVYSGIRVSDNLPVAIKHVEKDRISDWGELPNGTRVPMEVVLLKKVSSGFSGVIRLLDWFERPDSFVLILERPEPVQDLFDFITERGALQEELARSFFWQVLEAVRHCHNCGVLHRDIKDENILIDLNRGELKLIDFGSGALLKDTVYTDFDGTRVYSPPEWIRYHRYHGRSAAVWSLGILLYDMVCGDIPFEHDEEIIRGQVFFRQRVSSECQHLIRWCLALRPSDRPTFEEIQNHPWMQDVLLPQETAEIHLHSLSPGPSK
Sequence of EPHA7 (human) (Q15375 whole entry, looked up): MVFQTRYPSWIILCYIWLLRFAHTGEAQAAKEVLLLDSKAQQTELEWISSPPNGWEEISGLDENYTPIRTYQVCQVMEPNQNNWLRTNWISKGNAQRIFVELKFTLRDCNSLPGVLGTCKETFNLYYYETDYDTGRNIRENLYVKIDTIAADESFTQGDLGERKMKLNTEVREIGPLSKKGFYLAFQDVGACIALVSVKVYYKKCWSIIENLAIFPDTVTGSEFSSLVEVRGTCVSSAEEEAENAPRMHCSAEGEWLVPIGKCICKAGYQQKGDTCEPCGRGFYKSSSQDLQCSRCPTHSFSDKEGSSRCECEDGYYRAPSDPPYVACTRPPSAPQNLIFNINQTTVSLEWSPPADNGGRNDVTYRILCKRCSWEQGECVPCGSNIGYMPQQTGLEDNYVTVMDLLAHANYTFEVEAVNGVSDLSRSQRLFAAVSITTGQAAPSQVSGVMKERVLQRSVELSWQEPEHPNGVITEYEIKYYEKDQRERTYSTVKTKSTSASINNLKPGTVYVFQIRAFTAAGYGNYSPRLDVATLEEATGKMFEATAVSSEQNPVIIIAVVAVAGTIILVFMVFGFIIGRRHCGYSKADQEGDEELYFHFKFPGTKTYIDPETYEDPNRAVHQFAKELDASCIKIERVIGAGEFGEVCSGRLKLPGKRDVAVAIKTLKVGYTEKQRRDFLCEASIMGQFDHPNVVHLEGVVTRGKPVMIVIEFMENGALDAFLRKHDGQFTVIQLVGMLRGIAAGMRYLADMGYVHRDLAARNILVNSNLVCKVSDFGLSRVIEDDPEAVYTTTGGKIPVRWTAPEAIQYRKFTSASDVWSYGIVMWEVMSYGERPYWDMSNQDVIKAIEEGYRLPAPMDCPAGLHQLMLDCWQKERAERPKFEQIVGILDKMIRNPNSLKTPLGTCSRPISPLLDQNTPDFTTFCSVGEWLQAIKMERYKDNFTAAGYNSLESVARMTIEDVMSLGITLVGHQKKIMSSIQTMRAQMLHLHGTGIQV
Sequence of CSNK1G3 (human) (Q9Y6M4 whole entry, looked up): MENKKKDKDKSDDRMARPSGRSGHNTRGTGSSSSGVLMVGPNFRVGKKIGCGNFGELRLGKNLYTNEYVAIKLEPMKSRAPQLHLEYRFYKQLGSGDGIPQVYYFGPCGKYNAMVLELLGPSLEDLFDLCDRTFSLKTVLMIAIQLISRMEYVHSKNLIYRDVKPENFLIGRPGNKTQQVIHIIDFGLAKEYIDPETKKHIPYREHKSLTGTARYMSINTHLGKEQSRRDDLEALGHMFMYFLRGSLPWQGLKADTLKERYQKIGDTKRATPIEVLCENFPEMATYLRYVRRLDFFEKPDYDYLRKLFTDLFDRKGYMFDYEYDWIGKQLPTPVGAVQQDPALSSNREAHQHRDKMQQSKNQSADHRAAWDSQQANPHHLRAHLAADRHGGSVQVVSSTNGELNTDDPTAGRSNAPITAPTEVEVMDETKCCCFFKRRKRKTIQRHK
Sequence of ACVR2A (human) (P27037 whole entry, looked up): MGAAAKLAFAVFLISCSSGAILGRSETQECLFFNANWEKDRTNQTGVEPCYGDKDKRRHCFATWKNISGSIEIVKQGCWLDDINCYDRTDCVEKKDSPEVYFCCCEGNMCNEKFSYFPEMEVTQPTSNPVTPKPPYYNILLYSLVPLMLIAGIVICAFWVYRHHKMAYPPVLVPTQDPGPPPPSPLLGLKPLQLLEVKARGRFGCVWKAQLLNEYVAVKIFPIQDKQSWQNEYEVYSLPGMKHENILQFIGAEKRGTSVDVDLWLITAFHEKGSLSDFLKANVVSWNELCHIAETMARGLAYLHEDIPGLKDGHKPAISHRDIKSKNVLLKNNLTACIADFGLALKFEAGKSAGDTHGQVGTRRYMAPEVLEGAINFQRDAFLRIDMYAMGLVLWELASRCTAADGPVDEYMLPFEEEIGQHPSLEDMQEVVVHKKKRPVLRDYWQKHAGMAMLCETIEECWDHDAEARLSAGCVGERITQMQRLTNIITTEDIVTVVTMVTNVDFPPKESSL
Sequence of JAK3 JH1 catalytic (human) (P52333 whole entry, looked up): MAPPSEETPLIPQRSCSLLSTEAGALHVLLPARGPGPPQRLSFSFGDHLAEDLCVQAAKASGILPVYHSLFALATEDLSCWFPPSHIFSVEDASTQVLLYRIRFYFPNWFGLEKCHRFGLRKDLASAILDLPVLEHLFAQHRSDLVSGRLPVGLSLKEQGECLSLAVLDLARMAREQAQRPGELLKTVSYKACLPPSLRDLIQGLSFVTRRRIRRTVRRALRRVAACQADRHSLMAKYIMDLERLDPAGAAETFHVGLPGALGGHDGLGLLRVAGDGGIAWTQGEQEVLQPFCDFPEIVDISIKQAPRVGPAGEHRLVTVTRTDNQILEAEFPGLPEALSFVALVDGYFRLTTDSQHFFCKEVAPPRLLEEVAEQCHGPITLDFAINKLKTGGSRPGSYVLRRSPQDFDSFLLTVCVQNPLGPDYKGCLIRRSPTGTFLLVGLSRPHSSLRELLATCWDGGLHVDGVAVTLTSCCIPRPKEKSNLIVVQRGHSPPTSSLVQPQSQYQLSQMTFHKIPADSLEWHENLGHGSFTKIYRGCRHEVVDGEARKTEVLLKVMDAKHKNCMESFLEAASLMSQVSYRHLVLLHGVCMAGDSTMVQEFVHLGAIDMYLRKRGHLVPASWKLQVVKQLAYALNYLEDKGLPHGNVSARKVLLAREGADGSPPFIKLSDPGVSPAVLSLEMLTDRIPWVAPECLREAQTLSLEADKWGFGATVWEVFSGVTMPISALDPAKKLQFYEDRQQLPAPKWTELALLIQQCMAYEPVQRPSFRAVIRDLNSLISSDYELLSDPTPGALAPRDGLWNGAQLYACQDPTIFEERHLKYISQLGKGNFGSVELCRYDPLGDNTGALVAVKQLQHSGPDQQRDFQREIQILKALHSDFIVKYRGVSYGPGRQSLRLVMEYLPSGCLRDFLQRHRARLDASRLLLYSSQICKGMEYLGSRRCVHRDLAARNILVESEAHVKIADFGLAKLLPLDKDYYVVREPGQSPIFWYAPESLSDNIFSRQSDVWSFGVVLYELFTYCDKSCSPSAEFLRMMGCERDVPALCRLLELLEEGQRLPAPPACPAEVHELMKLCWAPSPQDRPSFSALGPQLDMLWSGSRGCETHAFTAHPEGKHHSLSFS
Sequence of PIP4K2C (human) (Q8TBX8 whole entry, looked up): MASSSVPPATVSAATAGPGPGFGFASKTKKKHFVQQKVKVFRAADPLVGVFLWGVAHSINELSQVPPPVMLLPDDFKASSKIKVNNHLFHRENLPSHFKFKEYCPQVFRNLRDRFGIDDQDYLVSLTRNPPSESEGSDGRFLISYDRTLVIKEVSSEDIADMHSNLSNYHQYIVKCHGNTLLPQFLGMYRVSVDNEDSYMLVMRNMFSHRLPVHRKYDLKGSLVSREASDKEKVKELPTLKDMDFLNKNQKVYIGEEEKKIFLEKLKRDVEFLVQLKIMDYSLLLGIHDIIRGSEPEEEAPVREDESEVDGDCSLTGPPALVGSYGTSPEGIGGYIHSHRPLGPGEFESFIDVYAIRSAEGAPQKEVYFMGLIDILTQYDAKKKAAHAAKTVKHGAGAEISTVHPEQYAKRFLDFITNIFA

Question: How did the per cent of control (TNK2 (human)) turn out when `CNC(=O)c1cc(Oc2ccc(NC(=O)Nc3ccc(Cl)c(C(F)(F)F)c3)cc2)cc[n+]1[O-]` was run?
Answer: The per cent of control was 100%.

Question: What about the per cent of control (MARK4 (human)) of the same compound?
Answer: Its per cent of control is 100%.

Question: And the per cent of control (EIF2AK1 (human))?
Answer: Its per cent of control is 100%.

Question: And the per cent of control (CSNK1G3 (human))?
Answer: Its per cent of control is 96%.

Question: What about the per cent of control (NEK11 (human)) of the same compound?
Answer: Its per cent of control is 100%.

Question: What about the per cent of control (STK10 (human)) of the same compound?
Answer: The per cent of control was 0%.

Question: And the per cent of control (PRKG2 (human))?
Answer: The per cent of control was 100%.

Question: And the per cent of control (MAPK11 (human))?
Answer: The per cent of control was 0%.

Question: And the per cent of control (HIPK4 (human))?
Answer: Its per cent of control is 2.3%.

Question: And the per cent of control (PLK4 (human))?
Answer: The per cent of control was 5.2%.

Question: What about the per cent of control (PIP4K2C (human)) of the same compound?
Answer: The per cent of control was 16%.

Question: What about the per cent of control [1] of the same compound?
Answer: Its per cent of control is 0.2%.

Question: What about the per cent of control (PIM2 (human)) of the same compound?
Answer: Its per cent of control is 100%.

Question: And the per cent of control (ACVR2A (human))?
Answer: The per cent of control was 89%.

Question: And the per cent of control (EPHA1 (human))?
Answer: Its per cent of control is 18%.

Question: And the per cent of control (STK16 (human))?
Answer: Its per cent of control is 81%.

Question: And the per cent of control (PRKCI (human))?
Answer: The per cent of control was 100%.

Question: And the per cent of control (EPHA7 (human))?
Answer: The per cent of control was 33%.

Question: And the per cent of control (EPHA8 (human))?
Answer: Its per cent of control is 0.3%.

Question: What about the per cent of control (EIF2AK2 (human)) of the same compound?
Answer: The per cent of control was 58%.

Question: What about the per cent of control (PLK3 (human)) of the same compound?
Answer: Its per cent of control is 100%.

Question: What about the per cent of control (PRKCE (human)) of the same compound?
Answer: The per cent of control was 100%.

Question: What about the per cent of control (CSNK2A1 (human)) of the same compound?
Answer: The per cent of control was 94%.

Question: And the per cent of control (MAPK8 (human))?
Answer: The per cent of control was 13%.

Question: And the per cent of control (CDC42BPA (human))?
Answer: Its per cent of control is 90%.

Question: What about the per cent of control [2] of the same compound?
Answer: The per cent of control was 78%.

Question: What about the per cent of control (MAPK4 (human)) of the same compound?
Answer: The per cent of control was 78%.

Question: And the per cent of control (CHEK2 (human))?
Answer: The per cent of control was 21%.

Question: And the per cent of control (BMX (human))?
Answer: Its per cent of control is 67%.

Question: What about the per cent of control (DYRK1B (human)) of the same compound?
Answer: Its per cent of control is 69%.

Question: And the per cent of control (FGFR1 (human))?
Answer: Its per cent of control is 9.7%.

Question: What about the per cent of control (FGFR4 (human)) of the same compound?
Answer: The per cent of control was 39%.

Question: And the per cent of control (CDKL5 (human))?
Answer: Its per cent of control is 27%.

Question: And the per cent of control (MAPKAPK2 (human))?
Answer: The per cent of control was 100%.

Question: What about the per cent of control (SLK (human)) of the same compound?
Answer: Its per cent of control is 9.4%.

Question: And the per cent of control (PTK6 (human))?
Answer: Its per cent of control is 100%.

Question: And the per cent of control (RIOK2 (human))?
Answer: The per cent of control was 42%.

Question: What about the per cent of control (PIM1 (human)) of the same compound?
Answer: Its per cent of control is 100%.

Question: And the per cent of control [3]?
Answer: The per cent of control was 0.4%.

Question: And the per cent of control (BMPR2 (human))?
Answer: The per cent of control was 98%.

Question: And the per cent of control (HCK (human))?
Answer: The per cent of control was 8.8%.

Question: What does the source list for `CNC(=O)c1cc(Oc2ccc(NC(=O)Nc3ccc(Cl)c(C(F)(F)F)c3)cc2)ccn1`?
Answer: per cent of control (TNK2 (human)): 99%; per cent of control (MARK4 (human)): 93%; per cent of control (EIF2AK1 (human)): 100%; per cent of control (CSNK1G3 (human)): 100%; per cent of control (NEK11 (human)): 99%; per cent of control (STK10 (human)): 0%; per cent of control (PRKG2 (human)): 100%; per cent of control (MAPK11 (human)): 0.05%; per cent of control (HIPK4 (human)): 4.5%; per cent of control (PLK4 (human)): 46%; per cent of control (PIP4K2C (human)): 34%; per cent of control [1]: 0.25%; per cent of control (PIM2 (human)): 89%; per cent of control (ACVR2A (human)): 100%; per cent of control (EPHA1 (human)): 11%; per cent of control (STK16 (human)): 94%; per cent of control (PRKCI (human)): 100%; per cent of control (EPHA7 (human)): 7.6%; per cent of control (EPHA8 (human)): 0.9%; per cent of control (EIF2AK2 (human)): 74%; per cent of control (PLK3 (human)): 100%; per cent of control (PRKCE (human)): 100%; per cent of control (CSNK2A1 (human)): 100%; per cent of control (MAPK8 (human)): 88%; per cent of control (CDC42BPA (human)): 96%; per cent of control [2]: 100%; per cent of control (MAPK4 (human)): 79%; per cent of control (CHEK2 (human)): 63%; per cent of control (BMX (human)): 94%; per cent of control (DYRK1B (human)): 67%; per cent of control (FGFR1 (human)): 3.4%; per cent of control (FGFR4 (human)): 43%; per cent of control (CDKL5 (human)): 67%; per cent of control (MAPKAPK2 (human)): 91%; per cent of control (SLK (human)): 9.2%; per cent of control (PTK6 (human)): 93%; per cent of control (RIOK2 (human)): 48%; per cent of control (PIM1 (human)): 100%; per cent of control [3]: 0.5%; per cent of control (BMPR2 (human)): 100%; per cent of control (HCK (human)): 14%
